Data published in ChEMBL document CHEMBL4033666, “Synthesis and mechanistic evaluation of novel N'-benzylidene-carbohydrazide-1H-pyrazolo[3,4-b]pyridine derivatives as non-anionic antiplatelet agents” (Eur J Med Chem, 2017).
Activity calls are given as the source filed them.

Assays:
[1] = test system: Platelet; assay: Antiplatelet activity in human platelet rich plasma assessed as inhibition of arachidonic acid-induced platelet aggregation at 100 uM preincubated for 2 mins followed by arachidonic acid addition by turbidimetric method relative to control; assay type: functional
[2] = test system: Platelet; assay: Antiplatelet activity in human platelet rich plasma assessed as inhibition of collagen-induced platelet aggregation at 100 uM preincubated for 2 mins followed by collagen addition by turbidimetric method relative to control; assay type: cell-based
[3] = test system: Plasma; assay: Change in activated partial thromboplastin time in human plasma at 100 uM incubated for 15 mins at room temperature and 2 mins at 37 degC in presence of CaCl2; assay type: ADME, cell-free
[4] = test system: Platelet; assay: Antiplatelet activity in human platelet rich plasma assessed as inhibition of epinephrine-induced platelet aggregation at 100 uM preincubated for 2 mins followed by epinephrine addition by turbidimetric method relative to control; assay type: cell-based
[5] = test system: Plasma; assay: Change in prothrombin time in human plasma at 100 uM incubated for 15 mins at room temperature and 2 mins at 37 degC in presence of calcium thromboplastin; assay type: ADME, cell-free
[6] = test system: Platelet; assay: Antiplatelet activity in human platelet rich plasma assessed as inhibition of ADP-induced platelet aggregation at 100 uM preincubated for 2 mins followed by ADP addition by turbidimetric method relative to control; assay type: cell-based
[7] = Hemolytic activity against human erythrocytes after 3 hrs relative to control; assay type: ADME, cell-based, Erythrocyte; conditions: read-out: Activity
[8] = test system: Platelet; assay: Antiplatelet activity in human platelet rich plasma assessed as inhibition of arachidonic acid-induced platelet aggregation preincubated for 2 mins followed by arachidonic acid addition by turbidimetric method relative to control; assay type: functional, cell-based
[9] = biological target: T1, Thromboxane-A synthase (Homo sapiens) (UniProt P24557); assay: Inhibition of TXS in human platelet rich plasma assessed as decrease in TXB2 production at 100 uM using arachidonic acid after 5 mins by ELISA
T1 sequence (whole entry): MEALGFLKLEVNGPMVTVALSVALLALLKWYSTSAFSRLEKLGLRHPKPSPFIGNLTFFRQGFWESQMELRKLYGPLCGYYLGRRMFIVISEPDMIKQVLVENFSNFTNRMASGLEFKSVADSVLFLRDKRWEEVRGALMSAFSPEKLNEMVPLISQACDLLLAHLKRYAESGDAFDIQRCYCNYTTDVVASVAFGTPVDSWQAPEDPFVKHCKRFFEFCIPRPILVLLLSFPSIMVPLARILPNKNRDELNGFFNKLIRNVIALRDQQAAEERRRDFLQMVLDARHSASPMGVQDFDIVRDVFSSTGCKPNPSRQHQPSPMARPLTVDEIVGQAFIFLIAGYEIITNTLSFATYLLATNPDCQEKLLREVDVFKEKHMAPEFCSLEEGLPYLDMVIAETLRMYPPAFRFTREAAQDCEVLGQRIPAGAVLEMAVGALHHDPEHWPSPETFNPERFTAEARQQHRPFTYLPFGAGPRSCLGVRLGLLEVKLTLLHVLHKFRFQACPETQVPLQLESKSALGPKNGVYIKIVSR

[10] = biological target: T2, Prostaglandin G/H synthase 1 (Ovis aries, UniProt P05979); assay: Inhibition of ovine COX-1 assessed as reduction in PGH2 production up to 100 uM using arachidonic acid as substrate preincubated for 5 mins followed by substrate and hematin addition measured after 2 mins by ELISA relative to control; conditions: sheep
T2 sequence (P05979 whole entry): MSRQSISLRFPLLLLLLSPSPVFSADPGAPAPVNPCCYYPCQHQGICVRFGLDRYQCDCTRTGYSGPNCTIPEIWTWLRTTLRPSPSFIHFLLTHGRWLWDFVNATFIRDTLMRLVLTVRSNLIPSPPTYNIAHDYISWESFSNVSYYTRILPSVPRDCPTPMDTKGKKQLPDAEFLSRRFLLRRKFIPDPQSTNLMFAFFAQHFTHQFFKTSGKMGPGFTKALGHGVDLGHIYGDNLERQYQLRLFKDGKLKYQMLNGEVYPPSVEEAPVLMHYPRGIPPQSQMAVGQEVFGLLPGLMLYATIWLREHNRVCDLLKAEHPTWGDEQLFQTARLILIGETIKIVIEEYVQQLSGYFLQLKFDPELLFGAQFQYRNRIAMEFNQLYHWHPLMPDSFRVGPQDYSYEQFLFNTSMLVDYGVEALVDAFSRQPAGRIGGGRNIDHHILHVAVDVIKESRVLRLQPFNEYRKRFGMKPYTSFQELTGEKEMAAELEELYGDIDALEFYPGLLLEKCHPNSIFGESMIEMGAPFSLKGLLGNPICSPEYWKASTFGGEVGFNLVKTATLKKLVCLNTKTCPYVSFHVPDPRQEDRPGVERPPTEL

[11] = test system: Platelet; assay: Antiplatelet activity in human platelet rich plasma assessed as inhibition of collagen-induced platelet aggregation preincubated for 2 mins followed by collagen addition by turbidimetric method; assay type: cell-based
[12] = test system: Platelet; assay: Drug uptake in human platelet assessed as co-localization with CD31 at 100 uM by confocal microscopy analysis; assay type: ADME, cell-based
[13] = test system: Platelet; assay: Antiplatelet activity in human platelet rich plasma assessed as inhibition of ADP-induced platelet aggregation preincubated for 2 mins followed by ADP addition by turbidimetric method; assay type: cell-based
[14] = Binding affinity to DOPC/DOPS large unilamellar vesicles assessed as blue shift at 100 uM by DAPI staining based fluorescence assay
[15] = biological target: T3, Prostaglandin G/H synthase 2 (Homo sapiens, UniProt P35354); assay: Inhibition of recombinant human COX-2 assessed as reduction in PGH2 production up to 100 uM using arachidonic acid as substrate preincubated for 5 mins followed by substrate and hematin addition measured after 2 mins by ELISA relative to control
T3 sequence (P35354 whole entry): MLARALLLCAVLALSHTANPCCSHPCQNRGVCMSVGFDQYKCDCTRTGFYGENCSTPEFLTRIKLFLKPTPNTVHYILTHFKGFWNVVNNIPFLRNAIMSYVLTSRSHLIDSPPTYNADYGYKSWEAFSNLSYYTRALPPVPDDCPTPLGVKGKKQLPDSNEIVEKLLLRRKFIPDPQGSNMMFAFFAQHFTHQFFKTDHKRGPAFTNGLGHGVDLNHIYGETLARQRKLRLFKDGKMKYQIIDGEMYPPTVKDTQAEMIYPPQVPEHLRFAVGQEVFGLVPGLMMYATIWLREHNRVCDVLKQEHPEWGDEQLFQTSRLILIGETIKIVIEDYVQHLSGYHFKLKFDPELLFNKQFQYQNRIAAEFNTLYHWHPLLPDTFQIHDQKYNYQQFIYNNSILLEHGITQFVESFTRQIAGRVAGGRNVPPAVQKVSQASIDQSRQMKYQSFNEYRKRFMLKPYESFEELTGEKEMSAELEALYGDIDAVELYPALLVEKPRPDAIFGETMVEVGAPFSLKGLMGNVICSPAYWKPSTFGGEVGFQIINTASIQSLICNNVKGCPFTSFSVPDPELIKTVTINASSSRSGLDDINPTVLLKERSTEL

[16] = biological target: Cytochrome P450 3A4 (Homo sapiens, UniProt P08684); assay: Inhibition of recombinant human CYP3A4 expressed in baculosomes using BOMR as substrate preincubated for 10 mins followed by substrate/NADP+ addition measured for 1 hr; assay type: ADME
Sequence of Cytochrome P450 3A4 (P08684 whole entry): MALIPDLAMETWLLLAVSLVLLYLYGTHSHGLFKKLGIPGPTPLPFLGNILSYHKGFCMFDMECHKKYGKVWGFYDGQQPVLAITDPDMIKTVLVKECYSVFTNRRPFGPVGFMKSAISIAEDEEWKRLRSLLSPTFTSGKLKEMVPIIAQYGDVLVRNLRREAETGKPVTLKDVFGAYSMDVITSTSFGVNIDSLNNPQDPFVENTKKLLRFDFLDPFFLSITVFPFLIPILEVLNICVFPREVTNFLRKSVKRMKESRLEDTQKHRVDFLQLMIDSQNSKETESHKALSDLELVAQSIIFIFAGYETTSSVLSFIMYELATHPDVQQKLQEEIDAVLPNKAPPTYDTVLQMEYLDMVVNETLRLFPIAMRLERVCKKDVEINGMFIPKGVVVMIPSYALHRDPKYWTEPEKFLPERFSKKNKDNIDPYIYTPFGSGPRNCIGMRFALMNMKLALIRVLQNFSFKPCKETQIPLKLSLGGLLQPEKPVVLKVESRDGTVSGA

[17] = test system: Blood; assay: Reduction of clot retraction in human whole blood after 2 hrs; assay type: ADME, tissue-based
[18] = test system: Platelet; assay: Antiplatelet activity in human platelet rich plasma assessed as inhibition of […]-induced platelet aggregation at 100 uM preincubated for 2 mins followed by […] addition by turbidimetric method; assay type: functional, cell-based
[19] = test system: Platelet; assay: Drug uptake in human platelet assessed as co-localization with CD31 at 100 uM by epifluorescence assay; assay type: ADME, cell-based
[20] = biological target: Prostaglandin G/H synthase 1 (Homo sapiens, UniProt P23219); assay: Inhibition of COX1 in human platelet rich plasma assessed as decrease in PGE2 production at 100 uM using arachidonic acid as substrate after 5 mins by ELISA
Sequence of Prostaglandin G/H synthase 1 (Homo sapiens, UniProt P23219) (P23219 whole entry): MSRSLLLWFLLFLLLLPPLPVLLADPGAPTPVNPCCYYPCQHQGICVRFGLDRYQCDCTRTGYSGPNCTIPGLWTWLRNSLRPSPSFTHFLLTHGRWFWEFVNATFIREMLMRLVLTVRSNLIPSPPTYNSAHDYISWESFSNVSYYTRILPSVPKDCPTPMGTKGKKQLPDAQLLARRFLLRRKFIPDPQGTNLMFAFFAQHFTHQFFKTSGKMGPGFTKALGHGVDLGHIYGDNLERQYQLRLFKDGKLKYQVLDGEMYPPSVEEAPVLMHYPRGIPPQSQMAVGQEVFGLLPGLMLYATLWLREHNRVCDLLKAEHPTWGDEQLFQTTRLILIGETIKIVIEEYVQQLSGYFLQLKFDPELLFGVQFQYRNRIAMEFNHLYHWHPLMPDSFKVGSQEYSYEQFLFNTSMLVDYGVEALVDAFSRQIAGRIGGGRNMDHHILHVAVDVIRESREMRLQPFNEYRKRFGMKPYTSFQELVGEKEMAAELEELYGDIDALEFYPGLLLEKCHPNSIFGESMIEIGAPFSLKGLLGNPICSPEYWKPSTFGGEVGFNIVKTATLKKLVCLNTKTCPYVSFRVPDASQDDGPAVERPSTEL

[21] = test system: Platelet; assay: Antiplatelet activity in human platelet rich plasma assessed as inhibition of epinephrine-induced platelet aggregation preincubated for 2 mins followed by epinephrine addition by turbidimetric method; assay type: cell-based

| SMILES | inhibition at 100 µM [1] [%] | inhibition at 100 µM [2] [%] | Activity [3] | inhibition at 100 µM [4] [%] | Activity [5] | inhibition at 100 µM [6] [%] | further results |
| --- | --- | --- | --- | --- | --- | --- | --- |
| COc1ccc(/C=N/NC(=O)c2cc(C(F)(F)F)nc3c2c(C)nn3-c2ccccc2)cc1 | 2.39 | 0 | Non-Toxic | 0 | Non-Toxic | 0 |  |
| Cc1nn(-c2ccccc2)c2nc(C(F)(F)F)cc(C(=O)N/N=C/c3ccc(O)cc3)c12 | 10.4 | 13.3 | Non-Toxic | 15.9 | Non-Toxic | 12.5 | hemolysis at 3 h [7]: 99% |
| Cc1nn(-c2ccccc2)c2nc(C(F)(F)F)cc(C(=O)N/N=C/c3ccccc3)c12 | 0.27 | 0 | Non-Toxic | 14.1 | Non-Toxic | 5.98 |  |
| Cc1nn(-c2ccccc2)c2nc(C(F)(F)F)cc(C(=O)N/N=C/c3ccc([N+](=O)[O-])cc3)c12 | 0 | 0 | Non-Toxic | 0 | Non-Toxic | 6.93 |  |
| Cc1nn(-c2ccccc2)c2nc(C(F)(F)F)cc(C(=O)N/N=C/c3ccc(Br)cc3)c12 | 6.18 | 5.37 | Non-Toxic | 1.52 | Non-Toxic | 7.46 |  |
| CCOc1ccc(/C=N/NC(=O)c2cc(C(F)(F)F)nc3c2c(C)nn3-c2ccccc2)cc1 | 1.26 | 2 | Non-Toxic | 13.1 | Non-Toxic | 5.55 | hemolysis at 3 h [7]: 30% |
| COc1ccc(/C=N/NC(=O)c2cc(C)nc3c2c(C)nn3-c2ccccc2)cc1 | 3.43 | 15 | Non-Toxic | 8.4 | Non-Toxic | 2.9 |  |
| O=C(O)/C=C/c1ccc(Cn2ccnc2)cc1 [OZAGREL] |  |  |  |  |  |  | IC50 [8]: 53.1 µM; inhibition [9]: Active |
| CC(=O)Oc1ccccc1C(=O)O [ASPIRIN] | 96.6 | 85.3 |  | 58.6 |  | 41.9 | IC50 [8]: 37.6 µM; inhibition [9]: Active |
| Cc1nn(-c2ccccc2)c2nc(C(F)(F)F)cc(C(=O)N/N=C/c3ccc(Cl)cc3)c12 | 6.71 | 0 | Non-Toxic | 17 | Non-Toxic | 10.1 |  |
| Cc1nn(-c2ccccc2)c2nc(C(F)(F)F)cc(C(=O)N/N=C/c3ccc(F)cc3)c12 | 0 | 0.3 | Non-Toxic | 0 | Non-Toxic | 7.95 |  |
| Cc1cc(C(=O)N/N=C/c2ccccc2)c2c(C)nn(-c3ccccc3)c2n1 | 3.96 | 9.6 | Non-Toxic | 7 | Non-Toxic | 0 |  |
| CCOc1ccc(/C=N/NC(=O)c2cc(C)nc3c2c(C)nn3-c2ccccc2)cc1 | 1.26 | 0 | Non-Toxic | 0 | Non-Toxic | 1.69 |  |
| Cc1ccc(/C=N/NC(=O)c2cc(C(F)(F)F)nc3c2c(C)nn3-c2ccccc2)cc1 | 0.27 | 7.84 | Non-Toxic | 0.71 | Non-Toxic | 0.27 |  |
| Cc1cc(C(=O)N/N=C/c2ccc(C#N)cc2)c2c(C)nn(-c3ccccc3)c2n1 | 24.4 | 1.68 | Non-Toxic | 0 | Non-Toxic | 33.6 |  |
| Cc1cc(C(=O)N/N=C/c2ccc([N+](=O)[O-])cc2)c2c(C)nn(-c3ccccc3)c2n1 | 95 | 4.1 | Non-Toxic | 4.15 | Non-Toxic | 0 | IC50 [8]: 78.9 µM; inhibition (INH) [10]: Not Active; IC50 [11]: > 100 µM; Drug uptake [12]: Active; IC50 [13]: > 100 µM; Activity [14]: Active; inhibition (INH) [15]: Not Active; IC50 [16]: 156 µM; Activity [17]: Non-Toxic; inhibition [9]: Active; inhibition [18]: inactive; Drug uptake [19]: Active; inhibition (INH) [20]: Not Active; IC50 [21]: > 100 µM; hemolysis at 3 h [7]: 7.3% |
| Cc1nn(-c2ccccc2)c2nc(C(F)(F)F)cc(C(=O)N/N=C/c3ccc(C#N)cc3)c12 | 4.77 | 3.59 | Non-Toxic | 0 | Non-Toxic | 4.55 |  |
